# Data from ChEMBL document CHEMBL1201861, “Genomics of Drug Sensitity in Cancer screening data, Wellcome Trust Sanger Institute”.
# Columns and labels:
# [1] = test system: HCC38; experiment: cells; format: functional, cell-based; settings: Homo sapiens;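 further: cell viability assay on the human HCC38 cell line, with IC50 marking the concentration that inhibits cell growth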
# Description: SANGER: Inhibition of human HCC38 cell growth in a cell viability assay.
# [2] = test system: HEC-1; experiment: cells; format: functional, cell-based; settings: Homo sapiens;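 further: growth inhibition of the cell line, read out with a cell viability assay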
# Description: SANGER: Inhibition of human HEC-1 cell growth in a cell viability assay.
# [3] = test system: MCF7; experiment: cells; format: functional, cell-based; settings: Homo sapiens;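 further: growth inhibition of human MCF7 cells, read out with a cell viability assay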
# Description: SANGER: Inhibition of human MCF7 cell growth in a cell viability assay.
# [4] = test system: MIA PaCa-2; experiment: cells; format: functional, cell-based; settings: Homo sapiens;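 further: growth inhibition of MIA PaCa-2 cells, read out with a cell viability assay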
# Description: SANGER: Inhibition of human MIA-PaCa-2 cell growth in a cell viability assay.
# [5] = test system: P12-Ichikawa; experiment: cells; format: functional, cell-based; settings: Homo sapiens
# [6] = test system: MKN-45; experiment: cells; format: functional, cell-based; settings: Homo sapiens;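 further: growth inhibition of human MKN-45 cells, measured with a cell viability assay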
# Description: SANGER: Inhibition of human MKN45 cell growth in a cell viability assay.
# [7] = test system: A204; experiment: cells; format: functional, cell-based; settings: Homo sapiens;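 further: growth inhibition of human A204 cells, read out with a cell viability assay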
# Description: SANGER: Inhibition of human A204 cell growth in a cell viability assay.
# [8] = test system: OVCAR-8; experiment: cells; format: functional, cell-based; settings: Homo sapiens;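 further: growth inhibition of human OVCAR-8 cells, read out by a cell viability assay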
# Description: SANGER: Inhibition of human OVCAR-8 cell growth in a cell viability assay.
# [9] = test system: OVCAR-3; experiment: cells; format: functional, cell-based; settings: Homo sapiens;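 further: growth inhibition of human OVCAR-3 cells, determined by a cell viability assay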
# Description: SANGER: Inhibition of human OVCAR-3 cell growth in a cell viability assay.
# [10] = test system: M14; experiment: cells; format: functional, cell-based; settings: Homo sapiens;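 further: growth inhibition of M14 cells, read out with a cell viability assay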
# Description: SANGER: Inhibition of human M14 cell growth in a cell viability assay.
# [11] = test system: S-117; experiment: cells; format: functional, cell-based; settings: Homo sapiens
# Description: SANGER: Inhibition of human S-117 cell growth in a cell viability assay.
# [12] = test system: MG-63; experiment: cells; format: functional, cell-based; settings: Homo sapiens;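 further: growth inhibition of human MG-63 cells, read out with a cell viability assay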
# Description: SANGER: Inhibition of human MG-63 cell growth in a cell viability assay.
# [13] = test system: COLO-741; experiment: cells; format: functional, cell-based; settings: Homo sapiens
# Description: SANGER: Inhibition of human COLO-741 cell growth in a cell viability assay.
# [14] = test system: RPMI-2650; experiment: cells; format: functional, cell-based; settings: Homo sapiens
# Description: SANGER: Inhibition of human RPMI-2650 cell growth in a cell viability assay.
# [15] = test system: ASPC1; experiment: cells; format: functional, cell-based; settings: Homo sapiens;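 further: growth inhibition of AsPC-1 cells, read out with a cell viability assay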
# Description: SANGER: Inhibition of human AsPC-1 cell growth in a cell viability assay.
# [16] = test system: UACC-62; experiment: cells; format: functional, cell-based; settings: Homo sapiens;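 further: growth inhibition of human UACC-62 cells, read out by a cell viability assay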
# Description: SANGER: Inhibition of human UACC-62 cell growth in a cell viability assay.
# [17] = test system: NB7; experiment: cells; format: functional, cell-based; settings: Homo sapiens;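 further: growth inhibition of NB7 cells, read out with a cell viability assay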
# Description: SANGER: Inhibition of human NB7 cell growth in a cell viability assay.
# [18] = test system: MC-IXC; experiment: cells; format: functional, cell-based; settings: Homo sapiens;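 further: growth inhibition of MC-IXC cells, read out with a cell viability assay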
# Description: SANGER: Inhibition of human MC-IXC cell growth in a cell viability assay.
# [19] = test system: CAKI-1; experiment: cells; format: functional, cell-based; settings: Homo sapiens;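 further: growth inhibition of CAKI-1 cells, measured by a cell viability assay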
# Description: SANGER: Inhibition of human CAKI-1 cell growth in a cell viability assay.
# [20] = test system: RVH-421; experiment: cells; format: functional, cell-based; settings: Homo sapiens
# Description: SANGER: Inhibition of human RVH-421 cell growth in a cell viability assay.
# [21] = test system: NCI-H2122; experiment: cells; format: functional, cell-based; settings: Homo sapiens;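 further: growth inhibition of the cells, read out with a cell viability assay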
# Description: SANGER: Inhibition of human NCI-H2122 cell growth in a cell viability assay.
# [22] = test system: RT-112; experiment: cells; format: functional, cell-based; settings: Homo sapiens
# Description: SANGER: Inhibition of human RT-112 cell growth in a cell viability assay.
# [23] = test system: SK-MES-1; experiment: cells; format: functional, cell-based; settings: Homo sapiens;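 further: growth inhibition of human SK-MES-1 cells, read out with a cell viability assay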
# Description: SANGER: Inhibition of human SK-MES-1 cell growth in a cell viability assay.
# [24] = test system: KP-N-YN; experiment: cells; format: functional, cell-based; settings: Homo sapiens;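 further: growth inhibition of KP-N-YN cells, read out with a cell viability assay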
# Description: SANGER: Inhibition of human KP-N-YN cell growth in a cell viability assay.
# [25] = test system: CHP-212; experiment: cells; format: functional, cell-based; settings: Homo sapiens
# Description: SANGER: Inhibition of human CHP-212 cell growth in a cell viability assay.
# [26] = test system: MDA-MB-175-VII; experiment: cells; format: functional, cell-based; settings: Homo sapiens
# [27] = test system: MDA-MB-157; experiment: cells; format: functional, cell-based; settings: Homo sapiens
# Description: SANGER: Inhibition of human MDA-MB-157 cell growth in a cell viability assay.
# [28] = test system: NCI-H441; experiment: cells; format: functional, cell-based; settings: Homo sapiens;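 further: growth inhibition of NCI-H441 cells, read out with a cell viability assay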
# Description: SANGER: Inhibition of human NCI-H441 cell growth in a cell viability assay.
# [29] = test system: CAL-85-1; experiment: cells; format: functional, cell-based; settings: Homo sapiens;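 further: growth inhibition of human CAL-85-1 cells, read out with a cell viability assay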
# Description: SANGER: Inhibition of human CAL-85-1 cell growth in a cell viability assay.
# [30] = test system: AN3-CA; experiment: cells; format: functional, cell-based; settings: Homo sapiens;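 further: growth inhibition of human AN3-CA cells measured by a cell viability assay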
# Description: SANGER: Inhibition of human AN3-CA cell growth in a cell viability assay.
# [31] = test system: HCC70; experiment: cells; format: functional, cell-based; settings: Homo sapiens;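 further: cell viability assay measuring how strongly the compound suppresses proliferation of HCC70 cells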
# Description: SANGER: Inhibition of human HCC70 cell growth in a cell viability assay.
# [32] = test system: DK-MG; experiment: cells; format: functional, cell-based; settings: Homo sapiens;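 further: growth inhibition of DK-MG cells, read out with a cell viability assay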
# Description: SANGER: Inhibition of human DK-MG cell growth in a cell viability assay.
# [33] = test system: MDA-MB-231; experiment: cells; format: functional, cell-based; settings: Homo sapiens
# Description: SANGER: Inhibition of human MDA-MB-231 cell growth in a cell viability assay.
# [34] = test system: SK-LU-1; experiment: cells; format: functional, cell-based; settings: Homo sapiens;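 further: cell viability assay measuring growth inhibition of human SK-LU-1 cells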
# Description: SANGER: Inhibition of human SK-LU-1 cell growth in a cell viability assay.
# [35] = test system: C32; experiment: cells; format: functional, cell-based; settings: Homo sapiens;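 further: cell viability assay, with IC50 reflecting inhibition of C32 cell growth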
# Description: SANGER: Inhibition of human C32 cell growth in a cell viability assay.
# [36] = test system: SW756; experiment: cells; format: functional, cell-based; settings: Homo sapiens;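 further: growth inhibition of human SW756 cells, read out with a cell viability assay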
# Description: SANGER: Inhibition of human SW756 cell growth in a cell viability assay.
# [37] = test system: CAMA-1; experiment: cells; format: functional, cell-based; settings: Homo sapiens;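 further: growth inhibition of CAMA-1 cells, read out with a cell viability assay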
# Description: SANGER: Inhibition of human CAMA-1 cell growth in a cell viability assay.
# [38] = test system: KYSE-520 cell line; experiment: cells; format: functional, cell-based; settings: Homo sapiens;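 further: growth inhibition of human KYSE-520 cells, read out with a viability assay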
# Description: SANGER: Inhibition of human KYSE-520 cell growth in a cell viability assay.
# [39] = test system: Daoy; experiment: cells; format: functional, cell-based; settings: Homo sapiens;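 further: daoy cell growth inhibition, read out as cell viability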
# Description: SANGER: Inhibition of human Daoy cell growth in a cell viability assay.
# [40] = test system: G-402; experiment: cells; format: functional, cell-based; settings: Homo sapiens
# Description: SANGER: Inhibition of human G-402 cell growth in a cell viability assay.
# [41] = test system: HuCCT-1; experiment: cells; format: functional, cell-based, HuCCT1; settings: Homo sapiens;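 further: growth inhibition of HuCCT-1 cells, read out by a cell viability assay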
# Description: SANGER: Inhibition of human HuCCT1 cell growth in a cell viability assay.
# [42] = test system: SAOS-2; experiment: cells; format: functional, cell-based; settings: Homo sapiens;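 further: growth inhibition of human Saos-2 cells determined by a cell viability assay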
# Description: SANGER: Inhibition of human Saos-2 cell growth in a cell viability assay.
# [43] = test system: KYSE-70 cell line; experiment: cells; format: functional, cell-based; settings: Homo sapiens;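 further: cell viability assay read-out, with IC50 expressing suppression of KYSE-70 cell growth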
# Description: SANGER: Inhibition of human KYSE-70 cell growth in a cell viability assay.
# [44] = test system: SW1573; experiment: cells; format: functional, cell-based; settings: Homo sapiens;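 further: growth inhibition of SW1573 cells, read out with a cell viability assay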
# Description: SANGER: Inhibition of human SW1573 cell growth in a cell viability assay.
# [45] = test system: OAW-28; experiment: cells; format: functional, cell-based; settings: Homo sapiens;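 further: growth inhibition of OAW-28 cells, read out with a cell viability assay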
# Description: SANGER: Inhibition of human OAW-28 cell growth in a cell viability assay.
# [46] = test system: PC-3; experiment: cells; format: functional, cell-based; settings: Homo sapiens;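 further: cell viability assay measuring growth inhibition of PC-3 cells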
# Description: SANGER: Inhibition of human PC-3 cell growth in a cell viability assay.
# [47] = test system: LCLC-103H cell line; experiment: cells; format: functional, cell-based; settings: Homo sapiens
# Description: SANGER: Inhibition of human LCLC-103H cell growth in a cell viability assay.
# [48] = test system: TCC-SUP; experiment: cells; format: functional, cell-based; settings: Homo sapiens;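 further: growth inhibition of TCC-SUP cells, read out with a cell viability assay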
# Description: SANGER: Inhibition of human TCCSUP cell growth in a cell viability assay.
# [49] = test system: PFSK-1; experiment: cells; format: functional, cell-based; settings: Homo sapiens;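 further: cell viability assay measuring how strongly compounds suppress growth of human PFSK-1 cells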
# Description: SANGER: Inhibition of human PFSK-1 cell growth in a cell viability assay.
# [50] = test system: UO-31; experiment: cells; format: functional, cell-based; settings: Homo sapiens
# Description: SANGER: Inhibition of human U031 cell growth in a cell viability assay.
# [51] = test system: NCI-H810; experiment: cells; format: functional, cell-based; settings: Homo sapiens;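 further: IC50 reflects inhibition of cancer cell line growth, read out with a cell viability assay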
# Description: SANGER: Inhibition of human NCI-H810 cell growth in a cell viability assay.
# [52] = test system: NCI-H64; experiment: cells; format: functional, cell-based; settings: Homo sapiens;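 further: growth inhibition of NCI-H64 cells, read out with a cell viability assay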
# Description: SANGER: Inhibition of human NCI-H64 cell growth in a cell viability assay.
# [53] = test system: NALM-6; experiment: cells; format: functional, cell-based; settings: Homo sapiens;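 further: growth inhibition of NALM-6 cells, read out with a cell viability assay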
# Description: SANGER: Inhibition of human NALM-6 cell growth in a cell viability assay.
# [54] = test system: JIYOYE; experiment: cells; format: functional, cell-based; settings: Homo sapiens
# Description: SANGER: Inhibition of human JiyoyeP-2003 cell growth in a cell viability assay.
# [55] = test system: NCI-H1522; experiment: cells; format: functional, cell-based; settings: Homo sapiens;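 further: growth inhibition of NCI-H1522 cells, read out with a cell viability assay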
# Description: SANGER: Inhibition of human NCI-H1522 cell growth in a cell viability assay.
# [56] = test system: NCI-H1417; experiment: cells; format: functional, cell-based; settings: Homo sapiens;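 further: human NCI-H1417 cells, growth inhibition determined with a cell viability readout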
# Description: SANGER: Inhibition of human NCI-H1417 cell growth in a cell viability assay.
# [57] = test system: CAL-148; experiment: cells; format: functional, cell-based; settings: Homo sapiens
# Description: SANGER: Inhibition of human CAL-148 cell growth in a cell viability assay.
# [58] = test system: CESS; experiment: SANGER: Inhibition of human CESS cell growth in a cell viability assay.; format: functional, cell-based
# [59] = test system: CMK; experiment: cells; format: functional, cell-based; settings: Homo sapiens;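 further: growth inhibition of CMK cells, read out as cell viability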
# Description: SANGER: Inhibition of human CMK cell growth in a cell viability assay.
# [60] = test system: BL-70; experiment: SANGER: Inhibition of human BL-70 cell growth in a cell viability assay.; format: functional, cell-based
# [61] = test system: IMR-5; experiment: cells; format: functional, cell-based; settings: Homo sapiens;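 further: growth inhibition of human IMR-5 cells, read out with a cell viability assay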
# Description: SANGER: Inhibition of human IMR-5 cell growth in a cell viability assay.
# [62] = test system: L-540; experiment: cells; format: functional, cell-based; settings: Homo sapiens;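 further: growth inhibition of the human L-540 cell line, read out with a viability assay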
# Description: SANGER: Inhibition of human L-540 cell growth in a cell viability assay.
# [63] = test system: LB647-SCLC; experiment: cells; format: functional, cell-based; settings: Homo sapiens;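 further: cell growth inhibition, read out by a viability assay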
# Description: SANGER: Inhibition of human LB647-SCLC cell growth in a cell viability assay.
# [64] = test system: LP-1; experiment: cells; format: functional, cell-based; settings: Homo sapiens;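 further: growth inhibition of human LP-1 cells, with the read-out taken from a cell viability assay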
# Description: SANGER: Inhibition of human LP-1 cell growth in a cell viability assay.
compound,measurement,setting,value
COc1cc(Nc2c(C#N)cnc3cc(OCCCN4CCN(C)CC4)c(OC)cc23)c(Cl)cc1Cl [BOSUTINIB],IC50,[1],> 2000 nM
same,IC50,[2],> 2000 nM
same,IC50,[3],> 2000 nM
same,IC50,[4],> 2000 nM
same,IC50,[5],> 2000 nM
same,IC50,[6],> 2000 nM
same,IC50,[7],> 2000 nM
same,IC50,[8],> 2000 nM
same,IC50,[9],> 2000 nM
same,IC50,[10],> 2000 nM
same,IC50,[11],> 2000 nM
same,IC50,[12],> 2000 nM
same,IC50,[13],> 2000 nM
same,IC50,[14],> 2000 nM
same,IC50,[15],> 2000 nM
same,IC50,[16],> 2000 nM
same,IC50,[17],82.3 nM
same,IC50,[18],> 2000 nM
same,IC50,[19],> 2000 nM
same,IC50,[20],> 2000 nM
same,IC50,[21],> 2000 nM
same,IC50,[22],> 2000 nM
same,IC50,[23],> 2000 nM
same,IC50,[24],> 2000 nM
same,IC50,[25],> 2000 nM
same,IC50,[26],> 2000 nM
same,IC50,[27],> 2000 nM
same,IC50,[28],> 2000 nM
same,IC50,[29],> 2000 nM
same,IC50,[30],> 2000 nM
same,IC50,[31],> 2000 nM
same,IC50,[32],> 2000 nM
same,IC50,[33],> 2000 nM
same,IC50,[34],> 2000 nM
same,IC50,[35],> 2000 nM
same,IC50,[36],140 nM
same,IC50,[37],> 2000 nM
same,IC50,[38],> 2000 nM
same,IC50,[39],> 2000 nM
same,IC50,[40],> 2000 nM
same,IC50,[41],> 2000 nM
same,IC50,[42],> 2000 nM
same,IC50,[43],> 2000 nM
same,IC50,[44],> 2000 nM
same,IC50,[45],> 2000 nM
same,IC50,[46],> 2000 nM
same,IC50,[47],> 2000 nM
same,IC50,[48],> 2000 nM
same,IC50,[49],> 2000 nM
same,IC50,[50],> 2000 nM
same,IC50,[51],> 2000 nM
CCn1c(-c2nonc2N)nc2cnc(Oc3cccc(NC(=O)c4ccc(OCCN5CCOCC5)cc4)c3)cc21 [GSK-269962A],IC50,[52],> 2500 nM
same,IC50,[53],1560 nM
same,IC50,[54],> 2500 nM
same,IC50,[17],> 2500 nM
same,IC50,[55],> 2500 nM
same,IC50,[56],> 2500 nM
same,IC50,[24],> 2500 nM
same,IC50,[57],> 2500 nM
same,IC50,[58],> 2500 nM
same,IC50,[59],1010 nM
same,IC50,[60],> 2500 nM
same,IC50,[61],> 2500 nM
same,IC50,[62],> 2500 nM
same,IC50,[63],> 2500 nM
same,IC50,[64],> 2500 nM
